Assays:
[1] = tested on: XPA-1-RFP pancreatic tumor xenografts; assay: Orthotopic XPA-1-RFP pancreatic tumor xenograft in Nestin-GFP mice; type: in vivo
Protocol: FIG. 16 and FIG. 17 illustrate data showing that KG5 inhibits pancreatic tumor growth and reduces tumor vascular density, as described in Murphy (2010) Proc. Natl. Acad. Sci. USA, Mar. 2, 2010; vol. 107(9): 4299-4304. FIGS. 16A and 16B, and FIGS. 17A and 17B: Real-time fluorescent imaging of XPA-1-RFP pancreatic tumor xenografts in the pancreas of Nestin-GFP mice (n=5/group) treated with either vehicle (FIG. 16A, 17A) or KG5 (FIG. 16B, 17B) (50 mg/kg, i.p., bid). Drug treatments were started 3 days after surgical orthotopic implantation (SOT) of XPA-1-RFP tumors, and tumor progression was monitored every 3 days by whole-animal imaging (Scale bar, 10 mm). FIG. 17(C) graphically illustrates a plot of tumor surface area over time for the vehicle- and KG5-treated groups, Tumor surface area was calculated by adding the total pixels of both the ventral and lateral images of the tumor. *P=0.034. FIG. 17(D) graphically illustrates average body weight of the mice measured each day of whole-animal imaging described in A and B. FIG. 16(C) graphically illustrates total weights of resected primary tumors on day 15 post-SOT. *P=0.022.
Animals were systemically treated with either vehicle or KG5 (50 mg/kg, bid) beginning 3 days after surgical orthotopic implantation (SOI) of a tumor fragment. Tumor growth was monitored noninvasively by whole-body imaging. […] Animals treated with KG5 produced an average tumor weight of 26.7 mg compared to 74.1 mg for vehicle-treated animals (FIG. 16C). At this time, GFP-labeled blood vessels were imaged and tumor-associated blood vessel density was quantified by measuring the ratio of total blood vessel length to tumor volume. […] The mean vessel length/tumor volume was 2.5 mm/mm^3 compared to 0.2 mm/mm^3 for vehicle and KG5, respectively.
FIG. 18 further illustrates data from the studies of FIG. 16 and FIG. 17: FIG. 18(A) and FIG. 18(B) illustrate representative fluorescent images of endothelial GFP expression (GFP expression driven by the Nestin promoter) within the XPA-1-RFP tumors after resection. Images were taken 15 days post-SOI (Scale bar, 200 μm); FIG. 18(C) illustrates a plot of tumor vessel density from images acquired as in E, Blood vessels imaged as in E were converted to length (mm) and normalized to tumor volume (mm^3). *P=0.01.

[2] = tested on: U-87 human glioblastoma cells; assay: Cells in pro-metaphase in orthotopic brain tumor xenografts; type: in vivo, mice; conditions: systemic KG5 50 mg/Kg, after three days
Protocol: Phosphorylation of CRAF on serine 338 has been linked to cell proliferation survival as well as breast cancer progression^9-11,14-16. To determine whether KG5 could similarly regulate phospho-5338 RAF in tumors, we analyzed orthotopic […] and brain tumor tissues for the presence of this marker before or after systemic delivery of the drug.
Tumors were generated by injection of RFP-labeled U-87 human glioblastoma cells (10^5 tumorcells in 2 μl of sterile PBS) into the brain of 6-8 week old female nude mice. Tumors were established for 3 weeks before beginning dosing. Mice were dosed with vehicle (10% HS-15) or 50 mg/kg KG5 (i.p. bid) for 3 days prior to harvest. Alternatively, U-87 cells stably expressing WT CRAF or the phospho-mimetic S338D CRAF mutant were injected into the brain of 6-8 week old female nude mice. Brains were harvested at day 15 and fluorescence images recorded using the IVIS-200™ imaging system (Xenogen Corp., Hopkinton, Mass.). Tumor sizes were measured as a function of fluorescence intensity using the ROI function of the IVIS Living Image Software. […]

[3] = tested on: Plk1; assay: Plk1 activity in tumor cells arrested in pro-metaphase; type: cell-based, human; conditions: compared to cells arrested with nocodazole or paclitaxel
Source text: FIG. 46. CRAF regulates Plk1 activity and localization. FIG. 46(a) Plk1 kinase activity assay performed in WT and CRAF−/− MEFs. Error bars represent s.d. (n=3); * two tailed p value=0.029 using Mann Whitney U test. FIG. 46(b) Immunoblot analysis of XPA-1 cells asynchronous or arrested in mitosis by treatment with KG5, nocodazole or paclitaxel (referred to as Ncdzl and Ptxl respectively). pPlk1 refers to phospho-T210 Plk1 and pHH3 refers to phospho-Histone H3. Data are representative of three independent experiments. FIG. 46(c) Plk1 kinase activity assay performed in HCT-116 cells treated with nocodazole or nocodazole and KG5. Error bars represent s.d. ([…]); * two tailed p value=0.002 using Mann Whitney U test. FIG. 46(d) Immunoblot analysis of CenpF immunoprecipitates from HCT-116 cells untreated or treated with KG5. Data are representative of three independent experiments. FIG. 46(e) Confocal microscopy images of XPA-1 cell at prophase (upper panel), pro-metaphase control untreated (middle panel) or treated with KG5 (lower panel). Cells were stained for phospho-T210 Plk1 (in green), a tubulin (in red) and DNA (TOPRO-3™ in blue). […]
Plk1 enzymatic activity in cell lysates from WT, CRAF−/− MEFs, HCT-116 cells expressing WT or S338D CRAF and HCT-116 cells treated with the allosteric RAF inhibitor KG5 was determined using the Plk1 kinase kit from MBL and following the manufacturer's protocol.

Q: How did the body weight ([1]; 50 mg/kg bid) turn out when `CSc1nc(N)cc(Oc2ccc(-c3nnc(Nc4cccc(C(F)(F)F)c4)[nH]3)cc2)n1` [KG5] was run?
A: no weight loss

Q: What about the signs of lethargy ([1]; 50 mg/kg bid) of the same compound?
A: did not demonstrate any signs of lethargy

Q: What about the “tumor growth by whole-body imaging” value ([1]; 50 mg/kg bid, 12 days post-SOI, compared to vehicle) of the same compound?
A: completely suppressed

Q: And the average tumor weight ([1]; 50 mg/kg i.p. bid from 3 days after SOI, resected primary tumors day 15 post-SOI, vehicle 74.1 mg)?
A: 26.7 mg

Q: And the “mean vessel length/tumor volume” value ([1]; 50 mg/kg i.p. bid, 15 days post-SOI, vehicle 2.5 mm/mm^3)?
A: 0.2 mm/mm^3

Q: And the “cells at pro-metaphase in orthotopic brain tumor tissues” value [2]?
A: accumulation of cells at pro-metaphase

Q: And the Plk1 activity [3]?
A: decreased Plk1 activity
